The structures appear in SMILES notation.

The values below come from patent US11306092B2, “Amino indole compounds useful as TLR inhibitors” (BRISTOL-MYERS SQUIBB COMPANY, priority 2017, dated 2022).

Holding throughout (assay type): cell-based
One test has as its target T1, human TLR8 (Homo sapiens, UniProt Q9NR97).
T1 construct: host or cells: HEK-Blue cells
T1 sequence (Q9NR97 27-1041): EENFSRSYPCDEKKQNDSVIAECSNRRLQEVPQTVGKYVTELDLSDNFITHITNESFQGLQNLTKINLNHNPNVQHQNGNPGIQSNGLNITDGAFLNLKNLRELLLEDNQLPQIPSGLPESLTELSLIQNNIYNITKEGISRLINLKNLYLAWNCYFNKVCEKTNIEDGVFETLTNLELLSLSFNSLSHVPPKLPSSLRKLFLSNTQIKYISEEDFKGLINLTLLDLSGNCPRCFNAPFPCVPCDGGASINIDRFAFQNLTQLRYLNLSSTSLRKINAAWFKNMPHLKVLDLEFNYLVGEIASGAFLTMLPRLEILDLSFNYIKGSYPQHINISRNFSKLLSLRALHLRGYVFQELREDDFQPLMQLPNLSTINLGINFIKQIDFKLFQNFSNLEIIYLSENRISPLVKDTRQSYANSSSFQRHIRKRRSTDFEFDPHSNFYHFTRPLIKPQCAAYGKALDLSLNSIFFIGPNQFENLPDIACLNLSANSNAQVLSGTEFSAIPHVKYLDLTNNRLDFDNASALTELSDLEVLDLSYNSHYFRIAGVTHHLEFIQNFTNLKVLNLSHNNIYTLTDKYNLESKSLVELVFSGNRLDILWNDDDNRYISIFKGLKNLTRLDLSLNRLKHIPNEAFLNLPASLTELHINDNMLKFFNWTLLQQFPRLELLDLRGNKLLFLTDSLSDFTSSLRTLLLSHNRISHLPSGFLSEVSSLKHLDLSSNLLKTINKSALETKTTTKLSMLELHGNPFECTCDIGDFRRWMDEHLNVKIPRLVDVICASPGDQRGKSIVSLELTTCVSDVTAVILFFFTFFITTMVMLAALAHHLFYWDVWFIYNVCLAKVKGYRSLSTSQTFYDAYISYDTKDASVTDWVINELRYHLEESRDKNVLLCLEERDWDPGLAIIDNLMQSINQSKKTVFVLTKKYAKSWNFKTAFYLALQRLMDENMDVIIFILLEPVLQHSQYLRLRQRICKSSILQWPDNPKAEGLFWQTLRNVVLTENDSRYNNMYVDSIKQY
The test is described as follows: TLR8 inhibition reporter assay (HEK-Blue SEAP reporter). The conditions noted are these: HEK-Blue cells overexpressing human TLR8; R848 15.9 μM; 22 hour incubation. Summed up:
(§1)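 Screening used HEK-Blue cells overexpressing one human TLR (7, 8 or 9) and an IFN-β minimal promoter–NF-κB/AP-1 SEAP construct. Stimulation lasted 22 h at 37 °C with receptor-specific agonist: gardiquimod, R848 or ODN2006 at 7.5 μM, 15.9 μM and 5 nM.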

Another test has as its target T2, human TLR9 (Homo sapiens, UniProt Q9NR96).
T2 construct: host or cells: HEK-Blue cells
T2 sequence (Q9NR96 26-1032): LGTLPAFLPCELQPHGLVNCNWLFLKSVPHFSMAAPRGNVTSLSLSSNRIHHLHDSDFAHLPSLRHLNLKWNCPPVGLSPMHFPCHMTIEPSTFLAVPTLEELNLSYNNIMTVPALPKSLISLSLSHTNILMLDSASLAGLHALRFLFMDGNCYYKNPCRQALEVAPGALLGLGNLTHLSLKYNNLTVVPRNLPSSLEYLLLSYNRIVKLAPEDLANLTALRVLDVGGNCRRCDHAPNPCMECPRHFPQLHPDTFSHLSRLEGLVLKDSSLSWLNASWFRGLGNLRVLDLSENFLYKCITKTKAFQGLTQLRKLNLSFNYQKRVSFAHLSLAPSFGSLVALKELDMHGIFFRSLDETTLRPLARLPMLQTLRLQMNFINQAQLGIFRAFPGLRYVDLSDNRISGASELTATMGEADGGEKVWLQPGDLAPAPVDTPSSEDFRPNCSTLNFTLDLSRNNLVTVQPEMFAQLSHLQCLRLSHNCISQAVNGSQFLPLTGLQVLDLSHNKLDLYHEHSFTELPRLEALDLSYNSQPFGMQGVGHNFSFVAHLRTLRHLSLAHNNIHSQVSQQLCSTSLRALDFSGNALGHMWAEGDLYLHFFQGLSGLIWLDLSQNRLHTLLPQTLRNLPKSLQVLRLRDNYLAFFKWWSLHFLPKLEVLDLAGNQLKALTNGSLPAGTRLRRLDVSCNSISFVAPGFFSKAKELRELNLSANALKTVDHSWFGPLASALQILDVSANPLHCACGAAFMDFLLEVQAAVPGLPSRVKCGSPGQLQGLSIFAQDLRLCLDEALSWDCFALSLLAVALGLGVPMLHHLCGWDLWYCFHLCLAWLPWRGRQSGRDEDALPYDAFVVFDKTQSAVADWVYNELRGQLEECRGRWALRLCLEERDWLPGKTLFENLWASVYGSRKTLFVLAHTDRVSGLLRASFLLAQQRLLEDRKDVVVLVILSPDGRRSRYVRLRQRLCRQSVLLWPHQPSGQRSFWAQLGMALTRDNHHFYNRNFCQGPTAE
The test is described as follows: TLR9 inhibition reporter assay (HEK-Blue SEAP reporter). The conditions noted are these: HEK-Blue cells overexpressing human TLR9; ODN2006 5 nM; 22 hour incubation. Summed up: as §1
For orientation: In a reporter assay the amount or activity of a reporter protein is the signal.

The target of a further test is T3, human TLR7 (Homo sapiens, UniProt Q9NYK1).
T3 construct: host or cells: HEK-Blue cells
T3 sequence (Q9NYK1 27-1049): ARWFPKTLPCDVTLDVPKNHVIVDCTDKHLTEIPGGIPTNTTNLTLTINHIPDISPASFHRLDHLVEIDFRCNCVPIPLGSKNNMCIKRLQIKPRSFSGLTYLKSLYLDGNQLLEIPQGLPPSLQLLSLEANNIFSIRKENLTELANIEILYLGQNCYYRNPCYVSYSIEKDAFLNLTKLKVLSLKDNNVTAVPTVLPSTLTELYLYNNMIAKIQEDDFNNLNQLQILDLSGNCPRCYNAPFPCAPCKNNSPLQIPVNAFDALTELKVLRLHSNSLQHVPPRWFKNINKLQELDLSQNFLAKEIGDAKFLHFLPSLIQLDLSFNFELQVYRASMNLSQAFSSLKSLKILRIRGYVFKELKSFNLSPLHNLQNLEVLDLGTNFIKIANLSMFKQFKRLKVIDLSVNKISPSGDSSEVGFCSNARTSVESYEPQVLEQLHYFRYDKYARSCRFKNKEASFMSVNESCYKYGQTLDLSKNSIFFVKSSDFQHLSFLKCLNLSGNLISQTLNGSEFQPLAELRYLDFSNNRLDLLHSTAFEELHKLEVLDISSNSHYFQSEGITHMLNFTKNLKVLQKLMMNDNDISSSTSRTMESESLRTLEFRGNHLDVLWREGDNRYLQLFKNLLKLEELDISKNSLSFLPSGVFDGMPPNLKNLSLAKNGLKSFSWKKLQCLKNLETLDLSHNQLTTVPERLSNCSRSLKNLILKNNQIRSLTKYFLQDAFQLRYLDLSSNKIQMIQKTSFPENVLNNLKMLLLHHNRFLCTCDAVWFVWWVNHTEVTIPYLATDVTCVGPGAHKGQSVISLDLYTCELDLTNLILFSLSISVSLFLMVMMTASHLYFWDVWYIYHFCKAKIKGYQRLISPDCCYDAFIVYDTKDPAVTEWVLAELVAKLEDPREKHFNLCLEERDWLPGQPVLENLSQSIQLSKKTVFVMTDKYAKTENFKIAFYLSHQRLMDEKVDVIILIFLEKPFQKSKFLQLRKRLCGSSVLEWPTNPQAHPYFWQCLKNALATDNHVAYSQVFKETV
The test is described as follows: TLR7 inhibition reporter assay (HEK-Blue SEAP reporter). The conditions noted are these: HEK-Blue cells overexpressing human TLR7; gardiquimod 7.5 μM; 22 hour incubation. In outline:
as §1

Take `COc1ccc(-c2[nH]c3ccc(NC(=O)[C@H](N)CCC(N)=O)cc3c2C(C)C)cc1OC` [Example 22, (R)-2-amino-N1-(2-(3,4-dimethoxyphenyl)-3-isopropyl-1H-indol-5-yl)pentanediamide]: the IC50 (usually the point on the concentration scale where inhibition reaches its midpoint) worked out at 213 nM at human TLR8, 19300 nM on human TLR9 and 670 nM on human TLR7.
Regarding `COc1ccc(-c2[nH]c3ccc(N4CCC(N5CC(C)OC(C)C5)CC4)cc3c2C(C)C)cc1OC` (stereo not drawn) [Example 80, 4-(1-(2-(3,4-dimethoxyphenyl)-3-isopropyl-H-indol-5-yl)piperidin-4-yl)-2,6-dimethylmorpholine], the figures for the IC50 against human TLR8, at human TLR9 and against human TLR7 were 19 nM, 5790 nM and 130 nM, respectively.
Taken in the same sequence, the figures for `COc1ccc(-c2[nH]c3ccc(N4CCC(N5CCCNCC5)CC4)cc3c2C(C)C)cc1OC` [Example 121, 5-(4-(1,4-diazepan-1-yl)piperidin-1-yl)-2-(3,4-dimethoxyphenyl)-3-isopropyl-1H-indole] were 5.2 nM, 993 nM and 15 nM.
Taken in the same sequence, the figures for `COc1ccc(-c2[nH]c3ccc(N4CCC(CCN5CCCC5)CC4)cc3c2C(C)C)cc1OC` [Example 115, 2-(3,4-dimethoxyphenyl)-3-isopropyl-5-(4-(2-(pyrrolidin-1-yl)ethyl)piperidin-1-yl)-1H-indole] were 61 nM, 621 nM and 31 nM.
Taken in the same sequence, the figures for `COc1ccc(-c2[nH]c3ccc(N4CCC(N(C)C)CC4)cc3c2C(C)C)cc1OC` [Example 108, 1-(2-(3,4-dimethoxyphenyl)-3-isopropyl-1H-indol-5-yl)-N,N-dimethylpiperidin-4-amine] were 10 nM, 2530 nM and 23 nM.
As for `COc1ccc(-c2[nH]c3ccc(NC(=O)C4CCNC4)cc3c2C(C)C)cc1OC` (stereo not drawn) [Example 13, N-(2-(3,4-dimethoxyphenyl)-3-isopropyl-1H-indol-5-yl) pyrrolidine-3-carboxamide], the half-inhibitory concentration (IC50) is 8.4 nM against human TLR8, 550 nM at human TLR9 and 51 nM against human TLR7.
Taken in the same sequence, the figures for `CCc1c(-c2cc(OC)nc(OC)c2)[nH]c2ccc(N3CCN(C4CCN(C)CC4)CC3)cc12` [Example 156, 2-(2,6-dimethoxypyridin-4-yl)-3-ethyl-5-(4-(1-methylpiperidin-4-yl)piperazin-1-yl)-1H-indole] were 6.6 nM, 597 nM and 52 nM.
`COc1ccc(-c2[nH]c3ccc(N4CCC(N(C)C)C4=O)cc3c2C(C)C)cc1OC` (stereo not drawn) [Example 3, 1-(2-(3,4-dimethoxyphenyl)-3-isopropyl-1H-indol-5-yl)-3-(dimethylamino)pyrrolidin-2-one]: the results for the IC50 against human TLR8, on human TLR9 and against human TLR7 were 31 nM, 10800 nM and 44 nM, respectively.
Taken in the same sequence, the figures for `COc1ccc(-c2[nH]c3ccc(N4CCC(C5c6ccccc6CCN5C)CC4)cc3c2C(C)C)cc1OC` (stereo not drawn) [Example 119, 1-(1-(2-(3,4-dimethoxyphenyl)-3-isopropyl-1H-indol-5-yl)piperidin-4-yl)-2-methyl-1,2,3,4-tetrahydroisoquinoline] were 24 nM, 2300 nM and 1400 nM.
Taken in the same sequence, the figures for `COc1ccc(-c2[nH]c3ccc(N4CCC(NC5CCN(C(C)C)CC5)CC4)cc3c2C(C)C)cc1OC` [Example 192, 1-(2-(3,4-dimethoxyphenyl)-3-isopropyl-1H-indol-5-yl)-N-(1-isopropylpiperidin-4-yl)piperidin-4-amine] were 7.7 nM, 322 nM and 36 nM.
Taken in the same sequence, the figures for `COc1ccc(-c2[nH]c3ccc(Nc4ccc(OCCN5CCCC5)cc4)cc3c2C(C)C)cc1OC` [Example 106, 2-(3,4-dimethoxyphenyl)-3-isopropyl-N-(4-(2-(pyrrolidin-1-yl)ethoxy)phenyl)-1H-indol-5-amine] were 35 nM, 1430 nM and 1400 nM.
On to `CCc1c(-c2cc(OC)nc(OC)c2)[nH]c2ccc(N3CCN(C4CCN(C(C)C)CC4)CC3)cc12` [Example 173, 2-(2,6-dimethoxypyridin-4-yl)-3-ethyl-5-(4-(1-isopropylpiperidin-4-yl)piperazin-1-yl)-1H-indole], for which the IC50 against human TLR8 was found to be 9.8 nM; against human TLR9 it was 673 nM; against human TLR7, 59 nM.
